Here are results for 18 compounds from BindingDB's records for doi:10.1021/jm00079a024 (Roche Products, 1992).

In general, IC50 refers to the midpoint of a concentration-inhibition curve. Low values mean greater potency in that assay, high ones weaker potency in that assay.

Chain of Protein kinase C beta type (P68403 whole entry): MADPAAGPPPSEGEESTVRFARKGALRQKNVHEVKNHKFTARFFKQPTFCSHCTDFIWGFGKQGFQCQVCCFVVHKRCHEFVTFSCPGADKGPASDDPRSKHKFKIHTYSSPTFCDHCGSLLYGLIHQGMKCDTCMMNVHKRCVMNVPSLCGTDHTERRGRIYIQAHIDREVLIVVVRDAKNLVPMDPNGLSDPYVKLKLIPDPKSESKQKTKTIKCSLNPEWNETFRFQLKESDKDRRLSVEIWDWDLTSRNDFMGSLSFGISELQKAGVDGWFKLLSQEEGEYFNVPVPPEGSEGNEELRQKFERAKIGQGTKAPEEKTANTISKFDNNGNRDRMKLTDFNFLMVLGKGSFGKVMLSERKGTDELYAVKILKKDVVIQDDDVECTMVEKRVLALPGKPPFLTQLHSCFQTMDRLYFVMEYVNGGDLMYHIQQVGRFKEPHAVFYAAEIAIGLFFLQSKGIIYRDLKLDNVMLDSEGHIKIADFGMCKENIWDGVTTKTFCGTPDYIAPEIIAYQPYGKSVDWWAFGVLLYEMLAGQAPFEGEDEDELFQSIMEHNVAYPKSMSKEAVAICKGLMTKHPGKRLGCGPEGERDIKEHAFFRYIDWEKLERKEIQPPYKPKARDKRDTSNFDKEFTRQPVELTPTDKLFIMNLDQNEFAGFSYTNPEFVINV

In the first assay the target is cAMP-dependent protein kinase catalytic subunit alpha (Bos taurus, UniProt P00517). The assay can be described thus: PKA assay.
Conditions: not given
With `Cn1cc(C2=C(c3ccccc3)C(=O)NC2=O)c2ccccc21` [3-(1-methyl-1H-indol-3-yl)-4-phenyl-2,5-dihydro-1H-pyrrole-2,5-dione], the IC50 was over 100 µM.

Turning to `Cn1cc(C2=C(c3csc4ccccc34)C(=O)NC2=O)c2ccccc21` [3-(1-benzothiophen-3-yl)-4-(1-methyl-1H-indol-3-yl)-2,5-dihydro-1H-pyrrole-2,5-dione], the IC50 was over 100 µM.

As to `Cn1cc(C2=C(c3cccc(N)c3)C(=O)NC2=O)c2ccccc21` [3-(3-aminophenyl)-4-(1-methyl-1H-indol-3-yl)-2,5-dihydro-1H-pyrrole-2,5-dione], the IC50 is over 100 µM. For the compound `Cn1cc(C2=C(c3cn(C)c4cccc([N+](=O)[O-])c34)C(=O)NC2=O)c2ccccc21` [3-(1-methyl-1H-indol-3-yl)-4-(1-methyl-4-nitro-1H-indol-3-yl)-2,5-dihydro-1H-pyrrole-2,5-dione], the half-inhibitory concentration (IC50) is over 100 µM. On the same count and under the same terms, the result for `Cn1cc(C2=C(c3cc(Cl)cc(Cl)c3)C(=O)NC2=O)c2ccccc21` [3-(3,5-dichlorophenyl)-4-(1-methyl-1H-indol-3-yl)-2,5-dihydro-1H-pyrrole-2,5-dione] reads over 100 µM; that for `Cn1cc(C2=C(c3cccc(Cl)c3)C(=O)NC2=O)c2ccccc21` [3-(3-chlorophenyl)-4-(1-methyl-1H-indol-3-yl)-2,5-dihydro-1H-pyrrole-2,5-dione], over 100 µM. Still for that read-out and setting: the same measure for `Cc1cccc(C2=C(c3cn(C)c4ccccc34)C(=O)NC2=O)c1` [3-(1-methyl-1H-indol-3-yl)-4-(3-methylphenyl)-2,5-dihydro-1H-pyrrole-2,5-dione]: over 100 µM.

The same assay, now with this note: pH 8.5; 37 °C.
With `Cn1cc(C2=C(c3cn(Cc4ccccc4)c4ccccc34)C(=O)NC2=O)c2ccccc21` [3-(1-benzyl-1H-indol-3-yl)-4-(1-methyl-1H-indol-3-yl)-2,5-dihydro-1H-pyrrole-2,5-dione], the IC50 is over 100 µM.

Another assay addresses Protein kinase C beta type (Rattus norvegicus, UniProt P68403). The assay is described as follows: PKC assay.
Conditions: not given
In turn, `CSc1ccc(C2=C(c3cn(C)c4ccccc34)C(=O)NC2=O)cc1` [3-(1-methyl-1H-indol-3-yl)-4-[4-(methylsulfanyl)phenyl]-2,5-dihydro-1H-pyrrole-2,5-dione] registered a concentration for half-maximal inhibition (IC50) of over 50 µM. Consider `Cn1cc(C2=C(c3ccc(Cl)cc3)C(=O)NC2=O)c2ccccc21` [3-(4-chlorophenyl)-4-(1-methyl-1H-indol-3-yl)-2,5-dihydro-1H-pyrrole-2,5-dione], for which the half-maximal inhibitory concentration (IC50) was over 100 µM.

The compound `Cn1cc(C2=C(c3ccc(S(C)(=O)=O)cc3)C(=O)NC2=O)c2ccccc21` [3-(4-methanesulfonylphenyl)-4-(1-methyl-1H-indol-3-yl)-2,5-dihydro-1H-pyrrole-2,5-dione] had an IC50 of over 100 µM. As for `Cn1cc(C2=C(c3cn(C)c4ccc(C(=O)O)cc34)C(=O)NC2=O)c2ccccc21` [1-methyl-3-[4-(1-methyl-1H-indol-3-yl)-2,5-dioxo-2,5-dihydro-1H-pyrrol-3-yl]-1H-indole-5-carboxylic acid], the IC50 is over 50 µM. The same measure, in the same setting: the same measure for `Cn1cc(C2=C(c3cccc(Oc4ccccc4)c3)C(=O)NC2=O)c2ccccc21` [3-(1-methyl-1H-indol-3-yl)-4-(3-phenoxyphenyl)-2,5-dihydro-1H-pyrrole-2,5-dione]: over 100 µM.

The assay is the same for the next values; noted with them: pH 7.5; 30 °C.
The compound `Cn1cc(C2=C(c3cc4ccccc4n3C)C(=O)NC2=O)c2ccccc21` [3-(1-methyl-1H-indol-2-yl)-4-(1-methyl-1H-indol-3-yl)-2,5-dihydro-1H-pyrrole-2,5-dione] showed an IC50 of over 100 µM.

`CN1C(=O)C(c2c[nH]c3ccccc23)=C(c2c[nH]c3ccccc23)C1=O` had an IC50 of over 100 µM. Still for that read-out and setting: the same measure for `O=C1OC(=O)C(c2c[nH]c3ccccc23)=C1c1c[nH]c2ccccc12` [3,4-bis(1H-indol-3-yl)-2,5-dihydrofuran-2,5-dione]: over 100 µM; for `O=C1NC(=O)[C@@H](c2c[nH]c3ccccc23)[C@@H]1c1c[nH]c2ccccc12` [(3R,4R)-3,4-bis(1H-indol-3-yl)pyrrolidine-2,5-dione]: over 100 µM; for `O=C1NC(=O)[C@@H](c2c[nH]c3ccccc23)[C@H]1c1c[nH]c2ccccc12` [(3R,4S)-3,4-bis(1H-indol-3-yl)pyrrolidine-2,5-dione]: over 100 µM.
